Here are results for 9 compounds from PubChem BioAssay (NCI).

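Cells were grown in 96-well plates and exposed to each compound for 48 hours at five concentrations; endpoints were interpolated linearly between bracketing concentrations, or set to the highest concentration if not reached. Here, GI50 denotes the concentration required for 50% inhibition of growth. At the TGI there is no net growth.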

Test systems include A498 renal; A549 NSCLC; HCT-15 colon; HOP-92 NSCLC; HS 578T breast; HT29 colon; NCI-H460 lung; SF-268 CNS.
What all share (experiment): NCI-60 cell line screen, 48 h

For `COc1cc(C2=N/C(=C/c3cccs3)C(=O)O2)cc(OC)c1OC`, the TGI in the assay with A498 renal, in the assay with A549 NSCLC, with HCT-15 colon, in the assay on HOP-92 NSCLC, in the assay with HS 578T breast and with HT29 colon was over 100 µM throughout. In addition, the TGI in the assay with NCI-H460 lung and in the assay with SF-268 CNS was over 100 µM each time.

With `N#Cc1c(N)nc(N2CCOCC2)c(C#N)c1-c1ccccn1`, the GI50 with A498 renal was over 100 µM; in the assay on A549 NSCLC, over 100 µM; with HCT-15 colon it was over 100 µM; with HOP-92 NSCLC, over 52.8 µM; with HS 578T breast it was over 100 µM; in the assay on HT29 colon, over 100 µM. Besides, the GI50 with NCI-H460 lung and in the assay on SF-268 CNS was over 100 µM in each case. In addition, the TGI with A498 renal, with A549 NSCLC, in the assay with HCT-15 colon, with HOP-92 NSCLC, in the assay on HS 578T breast and with HT29 colon was over 100 µM each time. Also, the TGI in the assay on NCI-H460 lung and in the assay on SF-268 CNS was over 100 µM each time.

`CC([C@H]1CCC2C3CCC4C[C@@H](N)CC[C@]4(C)C3CC[C@@]21C)N(C)C` (stereo partly specified): the GI50 is 9.69 µM in the assay with A498 renal; 8.45 µM in the assay with A549 NSCLC; 1.59 µM in the assay on HCT-15 colon; 4.53 µM in the assay with HOP-92 NSCLC; 3.35 µM with HS 578T breast; 1.29 µM in the assay on HT29 colon. Besides, the GI50 with NCI-H460 lung was 2.4 µM; in the assay on SF-268 CNS it was 3.34 µM. The TGI in the assay on A498 renal came out at 25.9 µM; with A549 NSCLC it was 24.7 µM; in the assay on HCT-15 colon, 4.72 µM; in the assay on HOP-92 NSCLC, 25.9 µM; with HS 578T breast it was 16.1 µM; in the assay with HT29 colon, 5.59 µM. The TGI in the assay with NCI-H460 lung is 6.04 µM; in the assay with SF-268 CNS, 11.7 µM.

Turning to `CC(=[N-])N1CCC[C@@H](Nc2c3ccccc3nc3ccccc23)C1.[Cl][Pt].[NH-]CCC[NH-]`, the GI50 with A498 renal was 0.221 µM; in the assay with A549 NSCLC it was 0.0325 µM; in the assay with HCT-15 colon, 2.37 µM; in the assay with HOP-92 NSCLC, 2.21 µM; in the assay on HS 578T breast, 3.33 µM; with HT29 colon, 0.44 µM. The GI50 in the assay on NCI-H460 lung is 0.0277 µM; with SF-268 CNS, 3.68 µM. Also, the TGI in the assay on A498 renal is 0.656 µM; in the assay on A549 NSCLC, over 100 µM; in the assay with HCT-15 colon it was over 100 µM; with HOP-92 NSCLC, 8.36 µM; with HS 578T breast it was over 31.4 µM; with HT29 colon, over 100 µM. Further, the figures for the TGI in the assay on NCI-H460 lung and with SF-268 CNS were over 40.8 µM and over 100 µM, respectively.

On to `CC1=C(C(=O)Nc2cc(Cl)c3[nH]ncc3c2)C(c2ccc(C(F)(F)F)cc2)CC(=O)N1` (stereo unspecified), for which the GI50 with A498 renal is 11.7 µM; in the assay with A549 NSCLC, over 25 µM; in the assay with HCT-15 colon, over 25 µM; in the assay on HOP-92 NSCLC, 0.145 µM; in the assay on HS 578T breast, 0.898 µM; with HT29 colon, over 25 µM. The GI50 was over 25 µM with NCI-H460 lung and 11.7 µM in the assay on SF-268 CNS. The TGI in the assay with A498 renal, in the assay with A549 NSCLC, in the assay on HCT-15 colon, in the assay with HOP-92 NSCLC, in the assay on HS 578T breast and with HT29 colon was over 25 µM each time. For the same compound, the TGI with NCI-H460 lung and in the assay on SF-268 CNS was over 25 µM throughout.

For `C/C(O)=C(\C#N)C(=O)Nc1ccc(C(F)(F)F)cc1`, the GI50 with A498 renal is 1.36 µM; in the assay with A549 NSCLC, 26.5 µM; with HCT-15 colon it was 5.96 µM; in the assay on HOP-92 NSCLC it was 13.4 µM; in the assay on HS 578T breast, 39.1 µM; in the assay with HT29 colon, 44.6 µM. Further, the GI50 with NCI-H460 lung was 8.92 µM; in the assay on SF-268 CNS, 15 µM. Moreover, the TGI in the assay on A498 renal was 52.9 µM; in the assay with A549 NSCLC, over 100 µM; in the assay on HCT-15 colon, over 100 µM; in the assay with HOP-92 NSCLC, over 100 µM; in the assay on HS 578T breast, over 100 µM; in the assay on HT29 colon, over 100 µM. The TGI in the assay with NCI-H460 lung and in the assay on SF-268 CNS was over 100 µM each time.

Regarding `O=[N+]([O-])c1cc(C(F)(F)F)ccc1Sc1ccc(C(F)(F)F)cc1[N+](=O)[O-]`, the GI50 in the assay with A498 renal is 7.22 µM; in the assay with A549 NSCLC, 24.9 µM; in the assay with HCT-15 colon it was 6.84 µM; with HOP-92 NSCLC, 7.96 µM; with HS 578T breast it was 18.6 µM; in the assay on HT29 colon, 3.28 µM. The GI50 with NCI-H460 lung was 19 µM; in the assay with SF-268 CNS, 7.07 µM. For the same compound, the TGI is 30.6 µM in the assay with A498 renal; over 100 µM with A549 NSCLC; over 100 µM with HCT-15 colon; over 100 µM with HOP-92 NSCLC; over 100 µM in the assay with HS 578T breast; 9.79 µM in the assay with HT29 colon. Further, the TGI in the assay with NCI-H460 lung and in the assay on SF-268 CNS was over 100 µM throughout.

Turning to `COc1ccc2c(c1)C(=O)/C(=C/c1ccc([N+](=O)[O-])o1)O2`, the GI50 with A498 renal was 1.64 µM; in the assay on A549 NSCLC, 2.68 µM; with HCT-15 colon it was 0.613 µM; with HOP-92 NSCLC, 0.793 µM; in the assay on HS 578T breast, 2.58 µM; in the assay with HT29 colon, 0.954 µM. The GI50 in the assay on NCI-H460 lung is 1.75 µM; in the assay with SF-268 CNS, 1.85 µM. Also, the TGI in the assay with A498 renal was 4.12 µM; in the assay on A549 NSCLC, over 22.8 µM; in the assay with HCT-15 colon it was 2.14 µM; with HOP-92 NSCLC, 2.79 µM; in the assay with HS 578T breast it was over 26.8 µM; in the assay with HT29 colon it was 2.74 µM. The TGI in the assay with NCI-H460 lung came out at 3.83 µM; in the assay on SF-268 CNS it was 4.02 µM.

For the compound `Oc1c(Cl)cc(Cl)cc1C(c1cc(Cl)cc(Cl)c1O)C(Cl)(Cl)Cl`, the GI50 is 1.68 µM in the assay with A498 renal; 3.77 µM with A549 NSCLC; 0.825 µM in the assay with HCT-15 colon; 1.52 µM in the assay with HOP-92 NSCLC; 2.28 µM in the assay with HS 578T breast; 3.03 µM with HT29 colon. The GI50 with NCI-H460 lung was 2.01 µM; in the assay with SF-268 CNS, 2.34 µM. Also, the TGI with A498 renal was 5.77 µM; in the assay with A549 NSCLC, 14.4 µM; with HCT-15 colon, 13.8 µM; in the assay with HOP-92 NSCLC, 5.94 µM; with HS 578T breast, 10.4 µM; with HT29 colon it was 11.4 µM. Moreover, the TGI stood at 9.38 µM in the assay on NCI-H460 lung and 13.8 µM in the assay with SF-268 CNS.
